Our source for the IC50 values is ChEMBL document CHEMBL1125648, “Quinazoline antifolates inhibiting thymidylate synthase: 4-thio-substituted analogues” (J Med Chem, 1991).

Usually IC50 stands for the point on the concentration scale where inhibition reaches its midpoint.

The subject of this test is L1210. Briefly: Growth inhibition of L1210 cells in culture. It counts as functional, cell-based. Particulars: Mus musculus.
`CCN(Cc1ccc2ncnc(S)c2c1)c1ccc(C(=O)NC(CCC(=O)O)C(=O)O)cc1` (stereo not given) registered a 50% inhibitory concentration (IC50) of 31 µM.
`C#CCN(Cc1ccc2nc(C)nc(S)c2c1)c1ccc(C(=O)NC(CCC(=O)O)C(=O)O)cc1` (stereo not given) yielded an IC50 of 8 µM.
`C#CCN(Cc1ccc2ncnc(S)c2c1)c1ccc(C(=O)NC(CCC(=O)O)C(=O)O)cc1` (stereo not given) registered an IC50 of 7.4 µM.
With `C#CCN(Cc1ccc2nc(N)nc(S)c2c1)c1ccc(C(=O)NC(CCC(=O)O)C(=O)O)cc1` (stereo not given), the IC50 worked out at 18 µM.
`CCN(Cc1ccc2ncnc(SC)c2c1)c1ccc(C(=O)NC(CCC(=O)O)C(=O)O)cc1` (stereo not given): half-maximal inhibition (IC50) was put at 15 µM.
